In patent US20210130406A1, “PEPTIDE, COMPOSITION, AND METHOD FOR TREATING, PREVENTING, OR AMELIORATING MOOD DISORDER” (KYOTO UNIVERSITY, priority 2018, published 2021):

Columns and labels:
ddy mouse [1] = assay: Tail suspension test (motivation-improving effect), oral peptide; format: in vivo; settings: 30 minutes after administration, vs saline control
Method: (§1) Each prepared peptide was administered to a mouse (ddy mouse (5-week-old male, body weight 24 g-28 g)) in each of the following tests, and then the motivation-improving effect was evaluated by a tail suspension test.
(§2) Each mouse was suspended by the tail and hung 30 cm above the floor, 30 minutes after peptide administration. Subsequently, over a period of 6 minutes from the start of the test (0 minute), the time (immobility time) during which the mouse was in an immobility state after initiating escape behavior was measured. The immobility state is known as a “despair state”, and it can be evaluated that the shorter the immobility time, the better the despair state and the greater the motivation. Therefore, substances that provide a motivation-improving effect in this test can be effective in treating, preventing, or ameliorating mood disorders.
(§3) The amino acid sequence represented by SEQ ID NO: 2 was dissolved in physiological saline and orally administered to each mouse in an amount of 0.03, 0.1, or 0.3 mg/kg per body weight (n=5 to 6). As a control, mice were prepared by orally administering physiological saline alone (n=6). Each mouse was subjected to a tail suspension test, and the motivation-improving effect resulting from the peptide of the present invention was evaluated.
as §3, with “Each of the” for “The”, “sequences” for “sequence”, “NOS: 1 to 3” for “NO: 2”, “mice” for “each mouse”, “0.1” for “0.03, 0.1, or 0.3”, “alone to the mice” for “alone”

ddy mouse [2] = assay: Tail suspension test, peptide combined with receptor antagonists; format: in vivo; settings: Test 3, FIG. 3
Method: as §1, §2
Mice were prepared by orally administering the amino acid sequence represented by SEQ ID NO: 2 in an amount of 0.3 mg/kg and various receptor antagonists in combination thereto (n=5 to 6). Each mouse was subjected to a tail suspension test, and the motivation-improving effect resulting from the peptide of the present invention was evaluated.
(1) SCH23390: dopamine D1 receptor antagonist, and the amount used: 30 μg/kg (2) WAY100135: serotonin 5-HT1A receptor antagonist, and the amount used: 10 mg/kg (3) Bicuculline: GABA-A receptor antagonist, and the amount used: 30 mg/kg

[3] = Test 2, FIG. 2, oral 0.1 mg/kg in physiological saline

Row | Substance | immobility time (ddy mouse [1]; [3]) | immobility time (ddy mouse [1]; Test 1, FIG. 1, oral 0.03, 0.1 or 0.3 mg/kg in physiological saline, 6 minutes test, tendency depended on concentration) | immobility time (ddy mouse [2]; oral 0.3 mg/kg combined with Bicuculline (GABA-A receptor antagonist) 30 mg/kg) | immobility time (ddy mouse [2]; oral 0.3 mg/kg combined with SCH23390 (dopamine D1 receptor antagonist) 30 μg/kg) | immobility time (ddy mouse [2]; oral 0.3 mg/kg combined with WAY100135 (serotonin 5-HT1A receptor antagonist) 10 mg/kg)
1 | QQFLPEG [SEQ ID NO: 3] | not observed to have any decrease in immobility time | – | – | – | –
2 | QQFLPEGQSQSQK [SEQ ID NO: 2] | shorter immobility time than the control | shorter than that of the control | relatively decreased the immobility time | significantly increased immobility time | relatively decreased the immobility time
3 | QSQSQK [SEQ ID NO: 1] | shorter immobility time than the control | – | – | – | –
